In patent US12187728B2 (Raze Therapeutics, Inc., priority 2015, dated 2025):

Target: T1, Human MTHFD2 (Homo sapiens, UniProt P13995)
T1 construct: residues 36-350 in Uniport ID P13995; His6 (N); made in house; host or cells: E. coli
T1 sequence (P13995 36-350): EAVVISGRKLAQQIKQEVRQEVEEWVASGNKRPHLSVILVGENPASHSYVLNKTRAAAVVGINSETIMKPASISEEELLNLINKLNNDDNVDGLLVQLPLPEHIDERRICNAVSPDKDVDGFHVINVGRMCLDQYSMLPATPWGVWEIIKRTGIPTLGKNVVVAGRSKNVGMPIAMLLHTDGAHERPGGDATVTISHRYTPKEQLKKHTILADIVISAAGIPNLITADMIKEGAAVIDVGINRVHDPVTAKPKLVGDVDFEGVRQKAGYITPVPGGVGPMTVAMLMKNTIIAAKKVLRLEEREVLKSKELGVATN
Experiment: MTHFD2 Activity Assay (dehydrogenase activity, diaphorase/resazurin coupled fluorescence)
Assay type: biochemical
Conditions: inhibitory activity (IC50 and/or binding constant); 0.2 nM MTHFD2, 11 concentrations
Method in brief: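 His6-tagged MTHFD2 (res. 36-350), E. coli-expressed, at 0.2 nM preincubated with compound 15 min in Hepes pH 8.0/MgCl2/KH2PO4 buffer; 70 μM CH2-THF, 1 mM NAD+ added with resazurin/diaphorase, 30 min, EDTA stop. Resorufin fluorescence (ex 525/em 598); IC50 from 11-point 4-parameter fit.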

IC50 [µM] | Compound
0.01 to 1 | Cc1ccc(Nc2nc3c(c(=O)n(Cc4cc5c(Cl)cccc5[nH]4)c(=O)n3C)n2C)nc1CCC(=O)O [Example 377, 3-(6-(1-((4-chloro-1H-indol-2-yl)methyl)-3,7-dimethyl-2,6-dioxo-2,3,6,7-tetrahydro-1H-purin-8-ylamino)-3-methylpyridin-2-yl)propanoic acid]
0.01 to 1 | Cn1c(Nc2ccnc(CCC(N)=O)n2)nc2c1c(=O)n(Cc1cc3c(Cl)cccc3[nH]1)c(=O)n2C [Example 378, 3-(4-(1-((4-chloro-1H-indol-2-yl)methyl)-3,7-dimethyl-2,6-dioxo-2,3,6,7-tetrahydro-1H-purin-8-ylamino)pyrimidin-2-yl)propanamide]
0.01 to 1 | COc1ccc(Nc2nc3c(c(=O)n(Cc4cc5c(Cl)cccc5[nH]4)c(=O)n3C)n2C)cn1 [Example 380, 1-((4-chloro-1H-indol-2-yl)methyl)-8-(6-methoxypyridin-3-ylamino)-3,7-dimethyl-1H-purine-2,6(3H,7H)-dione]
0.01 to 1 | Cn1c(Nc2ccc(Cl)nc2)nc2c1c(=O)n(Cc1cc3c(Cl)cccc3[nH]1)c(=O)n2C [Example 381, 1-((4-chloro-1H-indol-2-yl)methyl)-8-(6-chloropyridin-3-ylamino)-3,7-dimethyl-1H-purine-2,6(3H,7H)-dione]
0.01 to 1 | Cn1c(Nc2ccc(C(F)(F)F)nc2)nc2c1c(=O)n(Cc1cc3c(Cl)cccc3[nH]1)c(=O)n2C [Example 382, 1-((4-chloro-1H-indol-2-yl)methyl)-3,7-dimethyl-8-(6-(trifluoromethyl)pyridin-3-ylamino)-1H-purine-2,6(3H,7H)-dione]
0.01 to 1 | Cc1ccc(Nc2nc3c(c(=O)n(Cc4cc5c(Cl)cccc5[nH]4)c(=O)n3C)n2C)cn1 [Example 383, 1-((4-chloro-1H-indol-2-yl)methyl)-3,7-dimethyl-8-(6-methylpyridin-3-ylamino)-1H-purine-2,6(3H,7H)-dione]
0.01 to 1 | Cn1c(Nc2ccc(F)nc2)nc2c1c(=O)n(Cc1cc3c(Cl)cccc3[nH]1)c(=O)n2C [Example 384, 1-((4-chloro-1H-indol-2-yl)methyl)-8-(6-fluoropyridin-3-ylamino)-3,7-dimethyl-1H-purine-2,6(3H,7H)-dione]
0.01 to 1 | Cn1c(CCN)nc2c1c(=O)n(Cc1cc3c(Cl)cccc3[nH]1)c(=O)n2C [Example 386, 8-(2-aminoethyl)-1-((4-chloro-1H-indol-2-yl)methyl)-3,7-dimethyl-1H-purine-2,6(3H,7H)-dione]
0.01 to 1 | CCc1cccc2[nH]c(Cn3c(=O)c4c(nc(Nc5ccncc5)n4C)n(C)c3=O)cc12 [Example 387, 1-((4-ethyl-1H-indol-2-yl)methyl)-3,7-dimethyl-8-(pyridin-4-ylamino)-1H-purine-2,6(3H,7H)-dione]
0.01 to 1 | Cn1c(C(O)c2ccccc2)nc2c1c(=O)n(Cc1cc3c(Cl)cccc3[nH]1)c(=O)n2C (stereo not shown) [Example 388, 1-((4-chloro-1H-indol-2-yl)methyl)-8-(hydroxy(phenyl)methyl)-3,7-dimethyl-1H-purine-2,6(3H,7H)-dione]
0.01 to 1 | CC(N)c1nc2c(c(=O)n(Cc3cc4c(Cl)cccc4[nH]3)c(=O)n2C)n1C (stereo not shown) [Example 389, 8-(1-aminoethyl)-1-[(4-chloro-1H-indol-2-yl)methyl]-3,7-dimethyl-purine-2,6-dione]
0.01 to 1 | CC(=O)NS(=O)(=O)c1ccc(Nc2nc3c(c(=O)n(Cc4cc5c(Cl)cccc5[nH]4)c(=O)n3C)n2C)cc1 [Example 390, N-((4-((1-((4-chloro-1H-indol-2-yl)methyl)-3,7-dimethyl-2,6-dioxo-2,3,6,7-tetrahydro-1H-purin-8-yl)amino)phenyl)sulfonyl)acetamide]
0.01 to 1 | Cn1c(C2CCCNC2)nc2c1c(=O)n(Cc1cc3c(Cl)cccc3[nH]1)c(=O)n2C (stereo not shown) [Example 391, 1-[(4-chloro-1H-indol-2-yl)methyl]-3,7-dimethyl-8-(3-piperidyl)purine-2,6-dione]
0.01 to 1 | Cn1c(Nc2ccc(N3CCNCC3)cn2)nc2c1c(=O)n(Cc1cc3c(Cl)cccc3[nH]1)c(=O)n2C [Example 392, 1-[(4-chloro-1H-indol-2-yl)methyl]-3,7-dimethyl-8-[(5-piperazin-1-yl-2-pyridyl)amino]purine-2,6-dione]
5 to 10 | Cn1c(Nc2ccncc2)nc2c1c(=O)n(Cc1cc3ccncc3[nH]1)c(=O)n2C [Example 393, 1-((1H-pyrrolo[2,3-c]pyridin-2-yl)methyl)-3,7-dimethyl-8-(pyridin-4-ylamino)-1H-purine-2,6(3H,7H)-dione]
5 to 10 | Cn1c(=O)c2c(nc(CCN)n2C)n(C)c1=O [Example 394, 8-(2-aminoethyl)-1,3,7-trimethyl-1H-purine-2,6(3H,7H)-dione]

IC50 [µM] | Compound
1 to 5 | Cn1c(N[C@@H]2CCC[C@@H]2N)nc2c1c(=O)n(Cc1cc3c(Cl)cccc3[nH]1)c(=O)n2C [Example 395, 8-((1R,2S)-2-aminocyclopentylamino)-1-((4-chloro-1H-indol-2-yl)methyl)-3,7-dimethyl-1H-purine-2,6(3H,7H)-dione]
0.01 to 1 | Cn1c(Nc2ccc(Cl)c(CCC(=O)O)n2)nc2c1c(=O)n(Cc1cc3c(Cl)cccc3[nH]1)c(=O)n2C [Example 396, 3-(3-chloro-6-(1-((4-chloro-1H-indol-2-yl)methyl)-3,7-dimethyl-2,6-dioxo-2,3,6,7-tetrahydro-1H-purin-8-ylamino)pyridin-2-yl)propanoic acid]
0.01 to 1 | Cn1c(Nc2ccc(-c3nnn[nH]3)cc2)nc2c1c(=O)n(Cc1cc3c(Cl)cccc3[nH]1)c(=O)n2C [Example 397, 8-((4-(1H-tetrazol-5-yl)phenyl)amino)-1-((4-chloro-1H-indol-2-yl)methyl)-3,7-dimethyl-1H-purine-2,6(3H,7H)-dione]
1 to 5 | Cn1c(Nc2cccc(-c3ccccc3)n2)nc2c1c(=O)n(Cc1cc3c(Cl)cccc3[nH]1)c(=O)n2C [Example 399, 1-[(4-chloro-1H-indol-2-yl)methyl]-3,7-dimethyl-8-[(6-phenyl-2-pyridyl)amino]purine-2,6-dione]
1 to 5 | Cn1c(Nc2ccc(-c3ccccc3)cn2)nc2c1c(=O)n(Cc1cc3c(Cl)cccc3[nH]1)c(=O)n2C [Example 400, 1-[(4-chloro-1H-indol-2-yl)methyl]-3,7-dimethyl-8-[(5-phenyl-2-pyridyl)amino]purine-2,6-dione]
0.01 to 1 | Cn1c(Nc2ccncc2)nc2c1c(=O)n(Cc1cc3c(C4CC4)cccc3[nH]1)c(=O)n2C [Example 401, 1-((4-cyclopropyl-1H-indol-2-yl)methyl)-3,7-dimethyl-8-(pyridin-4-ylamino)-1H-purine-2,6(3H,7H)-dione]
0.01 to 1 | Cn1c(Nc2ccncc2)nc2c1c(=O)n(Cc1ccc3c(Cl)cccc3c1)c(=O)n2C [Example 402, 1-((5-chloronaphthalen-2-yl)methyl)-3,7-dimethyl-8-(pyridin-4-ylamino)-1H-purine-2,6(3H,7H)-dione]
0.01 to 1 | Cn1c(N[C@H]2CCC[C@@H]2O)nc2c1c(=O)n(Cc1cc3c(Cl)cccc3[nH]1)c(=O)n2C [Example 403, 1-((4-chloro-1H-indol-2-yl)methyl)-8-((1S,2S)-2-hydroxycyclopentylamino)-3,7-dimethyl-1H-purine-2,6(3H,7H)-dione]
0.01 to 1 | Cn1c(Nc2ccncc2)nc2c1c(=O)n(Cc1cc3c(C(F)(F)F)cccc3[nH]1)c(=O)n2C [Example 404, 3,7-dimethyl-8-(pyridin-4-ylamino)-1-((4-(trifluoromethyl)-1H-indol-2-yl)methyl)-1H-purine-2,6(3H,7H)-dione]
0.01 to 1 | CN(C)C(=O)CCc1nccc(Nc2nc3c(c(=O)n(Cc4cc5c(Cl)cccc5[nH]4)c(=O)n3C)n2C)n1 [Example 405, 3-(4-(1-((4-chloro-1H-indol-2-yl)methyl)-3,7-dimethyl-2,6-dioxo-2,3,6,7-tetrahydro-1H-purin-8-ylamino)pyrimidin-2-yl)-N,N-dimethylpropanamide]
0.01 to 1 | Cn1c(Nc2ccnc(CCC(=O)N3CCCCC3)n2)nc2c1c(=O)n(Cc1cc3c(Cl)cccc3[nH]1)c(=O)n2C [Example 406, 1-((4-chloro-1H-indol-2-yl)methyl)-3,7-dimethyl-8-(2-(3-oxo-3-(piperidin-1-yl)propyl)pyrimidin-4-ylamino)-1H-purine-2,6(3H,7H)-dione]
0.01 to 1 | Cn1c(Nc2ccc(CO)nc2)nc2c1c(=O)n(Cc1cc3c(Cl)cccc3[nH]1)c(=O)n2C [Example 407, 1-((4-chloro-1H-indol-2-yl)methyl)-8-(6-(hydroxymethyl)pyridin-3-ylamino)-3,7-dimethyl-1H-purine-2,6(3H,7H)-dione]
0.01 to 1 | COC(=O)c1ccc(Nc2nc3c(c(=O)n(Cc4cc5c(Cl)cccc5[nH]4)c(=O)n3C)n2C)cn1 [Example 408, Methyl 5-(1-((4-chloro-1H-indol-2-yl)methyl)-3,7-dimethyl-2,6-dioxo-2,3,6,7-tetrahydro-1H-purin-8-ylamino)picolinate]
0.01 to 1 | Cn1c(Nc2ccc(C(N)=O)nc2)nc2c1c(=O)n(Cc1cc3c(Cl)cccc3[nH]1)c(=O)n2C [Example 409, 5-(1-((4-chloro-1H-indol-2-yl)methyl)-3,7-dimethyl-2,6-dioxo-2,3,6,7-tetrahydro-1H-purin-8-ylamino)picolinamide]
0.01 to 1 | Cc1cccc2cc(Cn3c(=O)c4c(nc(Nc5ccncc5)n4C)n(C)c3=O)ccc12 [Example 410, 3,7-dimethyl-1-((5-methylnaphthalen-2-yl)methyl)-8-(pyridin-4-ylamino)-1H-purine-2,6(3H,7H)-dione]
